Patent publication US12673942B2, “Azabicyclyl-substituted heterocycles as fungicides” (Bayer Aktiengesellschaft, priority 2020, dated 2026)

Key:
[1] = test system: Colletotrichum lindemuthianum; assay: Colletotrichum lindemuthianum in vitro cell test; type: cell-based; settings: 144 h, 20 ppm of active ingredient, liquid culture, 6 days incubation, read-out: efficacy (inhibition of fungal growth)
Procedure: (§1) • Solvent: […] Fungicides were solubilized in DMSO and the solution used to prepare the required range of concentrations. The final concentration of DMSO used in the assay was 1%. A spore suspension of Colletotrichum lindemuthianum was prepared and diluted to the desired spore density. Fungicides were evaluated for their ability to inhibit spore germination and mycelium growth in liquid culture assay. The compounds were added in the desired concentration to the culture medium with spores. After 6 days incubation, fungi-toxicity of compounds was determined by spectrometric measurement of mycelium growth. Inhibition of fungal growth was determined by comparing the absorbance values in wells containing the fungicides with the absorbance in control wells without fungicides.

Alternaria alternata = Alternaria alternata in vitro cell test; type: cell-based; settings: 120 h, 20 ppm of active ingredient, liquid culture, 5 days incubation, read-out: efficacy (inhibition of fungal growth)
Procedure: as §1, with “≤1%.” for “1%.”, “Alternaria alternata” for “Colletotrichum lindemuthianum”, “5” for “6”

Fusarium culmorum = Fusarium culmorum in vitro cell test; type: cell-based; settings: 96 h, 20 ppm of active ingredient, liquid culture, 4 days incubation, read-out: efficacy (inhibition of fungal growth)
Procedure: • Solvent: DMSO • Culture medium: 14.6 g anhydrous D-glucose (VWR), 7.1 g Mycological Peptone (Oxoid), 1.4 g granulated Yeast Extract (Merck), QSP 1 liter • Inoculum: spore suspension
Fungicides were solubilized in DMSO and the solution used to prepare the required range of concentrations. The final concentration of DMSO used in the assay was ≤1%.
A spore suspension of Fusarium culmorum was prepared and diluted to the desired spore density.
Fungicides were evaluated for their ability to inhibit spore germination and mycelium growth in liquid culture assay. The compounds were added in the desired concentration to the culture medium with spores. After 4 days incubation, fungi-toxicity of compounds was determined by spectrometric measurement of mycelium growth. Inhibition of fungal growth was determined by comparing the absorbance values in wells containing the fungicides with the absorbance in control wells without fungicides.

Septoria tritici = Septoria tritici in vitro cell test; type: cell-based; settings: Zymoseptoria tritici, 168 h; 20 ppm of active ingredient; liquid culture, 7 days incubation; read-out: efficacy (inhibition of fungal growth)
Procedure: • Solvent: DMSO • Culture medium: 1 g KH2PO4 (VWR), 1 g K2HPO4 (VWR), 0.5 g Urea (VWR), 3 g KNO3 (Prolabo), 10 g saccharose (VWR), 0.5 g MgSO4, 7H2O (Sigma), 0.07 g CaCl2, 2H2O (Prolabo), 0.2 mg MnSO4, H2O (Sigma), 0.6 mg CuSO4, 5H2O (Sigma), 7.9 mg ZnSO4, 7H2O (Sigma), 0.1 mg H3BO3 (Merck), 0.14 mg NaMoO4, 2H2O (Sigma), 2 mg thiamine (Sigma), 0.1 mg biotine (VWR), 4 mg FeSO4, 7H2O (Sigma), QSP 1 liter • Inoculum: spore suspension Fungicides were solubilized in DMSO and the solution used to prepare the required range of concentrations. The final concentration of DMSO used in the assay was 1%. A spore suspension of Septoria tritici was prepared and diluted to the desired spore density. Fungicides were evaluated for their ability to inhibit spore germination and mycelium growth in liquid culture assay. The compounds were added in the desired concentration to the culture medium with spores. […] Inhibition of fungal growth was determined by comparing the absorbance values in wells containing the fungicides with the absorbance in control wells without fungicides.

[2] = Measurement of Log P values by HPLC on reversed phase columns (EEC directive 79/831 Annex V.A8); type: physicochemical; settings: method [a]: LC-UV, acidic range, 0.1% formic acid in water and acetonitrile as eluent
Procedure: Measurement of Log P values as provided herein was performed according to EEC directive 79/831 Annex V.A8 by HPLC (High Performance Liquid Chromatography) on reversed phase columns with the following methods: • ^[a] Log P value is determined by measurement of LC-UV, in an acidic range, with 0.1% formic acid in water and acetonitrile as eluent (linear gradient from 10% acetonitrile to 95% acetonitrile). • ^[b] Log P value is determined by measurement of LC-UV, in a neutral range, with 0.001 molar ammonium acetate solution in water and acetonitrile as eluent (linear gradient from 10% acetonitrile to 95% acetonitrile). • ^[c] Log P value is determined by measurement of LC-UV, in an acidic range, with 0.1% phosphoric acid and acetonitrile as eluent (linear gradient from 10% acetonitrile to 95% acetonitrile).
If more than one Log P value is available within the same method, all the values are given and separated by “+”. […]

Pyricularia oryzae = assay: microbe, parasite or virus in culture; type: cell-based; settings: 120 h, read-out: efficacy (inhibition of fungal growth)

In the case of C#Cc1cccc(Oc2cnc3ccccc3c2C2=NOC[C@@H](Cc3ccc(C)cc3C)N2)c1 (racemic) [Compound I-016], the inhibition at 20 ppm [1] is reported as ≥ 70%, the inhibition at 20 ppm (Alternaria alternata) is reported as ≥ 70% and the inhibition at 20 ppm (Fusarium culmorum) is reported as ≥ 70%. The inhibition at 20 ppm (Septoria tritici) was ≥ 70%, the chromatographic logP [2] was 4.05 and the inhibition at 20 ppm (Pyricularia oryzae) was ≥ 70%.
For Cc1ccc(C[C@@H]2CON=C(c3c(Oc4cccc(C5CC5)c4F)cnc4ccccc34)N2)c(C)c1 (racemic) [Compound I-017], the inhibition at 20 ppm [1] was ≥ 70%, the inhibition at 20 ppm (Alternaria alternata) was ≥ 70% and the inhibition at 20 ppm (Fusarium culmorum) was ≥ 70%. The inhibition at 20 ppm (Septoria tritici) was ≥ 70%, the chromatographic logP [2] was 4.51 and the inhibition at 20 ppm (Pyricularia oryzae) was ≥ 70%.
With C=Cc1cccc(Oc2cnc3ccccc3c2C2=NOC[C@@H](Cc3ccc(C)cc3C)N2)c1 (racemic) [Compound I-018] the inhibition at 20 ppm [1] was ≥ 70%, the inhibition at 20 ppm (Alternaria alternata) was ≥ 70% and the inhibition at 20 ppm (Fusarium culmorum) was ≥ 70%. The inhibition at 20 ppm (Septoria tritici) was ≥ 70%, the chromatographic logP [2] was 4.23 and the inhibition at 20 ppm (Pyricularia oryzae) was ≥ 70%.
With Cc1ccc(C[C@@H]2CON=C(c3c(Oc4cccc(Br)c4F)cnc4ccccc34)N2)c(C)c1 (racemic) [Compound I-019] the inhibition at 20 ppm [1] was ≥ 70%, the inhibition at 20 ppm (Alternaria alternata) was ≥ 70% and the inhibition at 20 ppm (Fusarium culmorum) was ≥ 70%. For the same molecule, the inhibition at 20 ppm (Septoria tritici) was ≥ 70%, the chromatographic logP [2] was 4.33 and the inhibition at 20 ppm (Pyricularia oryzae) was ≥ 70%.
